Measured values published in US10278911B2, “Compositions containing cyclic peptides and methods of use” (Merck Patent GmbH, priority 2008, dated 2019).
Non-standard residues stand in square brackets, D forms with d. Residues, ends and D or L forms follow the SMILES beside them.

Experiments:
[1] = tested on: av-beta3/5; assay: Integrin ligand activity (in vitro studies); type: binding
[2] = tested on: full thickness skin model (human primary epidermal keratinocytes and human fibroblasts); assay: cDNA-microarray gene expression profile of treated human skin model (PIQOR-skin); type: cell-based; conditions: 0.5 μM, 4 days incubation
Procedure: The following is a study to determine the gene expression profiles of Cyclo-(Arg-Gly-Asp-DPhe-Acha) (=CPPC 1) treated human skin.
For the analysis of deregulated gene expression induced by substance CPPC 1, treated and control samples from a human skin model are analyzed as follows: • A full thickness skin model (human primary epidermal keratinocytes and human fibroblasts), such as the Phenion® FTSM, commercially available from Phenion GmbH & Co. KG, Düsseldorf, Germany, is used. Cells are not pooled or genetically modified. • Gene expression analysis is carried out with PIQOR™-skin cDNA microarrays, which contains 1312 genes that are involved in target pathways related to stress, inflammation, pigmentation and depigmentation, moisturization, anti-ageing and hair follicle development in humans. For instance, cell cycle, apoptosis, DNA repair, oxidative metabolism, angiogenesis, cell adhesion cell-matrix interactions and signaling. Genes are represented with four replicate spots. • Treatment with CPPC 1 is performed in 0.5 μM concentration (4 days incubation, n=3 per condition). […] Profiling of Gene Expression—Input Genes
A ratio (log 2) value of zero indicates no regulation, whereas positive (log 2) values indicate an upregulation and negative (log 2) values a downregulation of the relevant gene.
The deregulated genes for skin samples treated with 0.5 μM concentration is used for further analysis.

[3] = target: av-beta6 (Homo sapiens, UniProt P06756+P18564); assay: Integrin ligand activity (in vitro studies); type: binding
Sequence of av-beta6 (P06756 31-1048): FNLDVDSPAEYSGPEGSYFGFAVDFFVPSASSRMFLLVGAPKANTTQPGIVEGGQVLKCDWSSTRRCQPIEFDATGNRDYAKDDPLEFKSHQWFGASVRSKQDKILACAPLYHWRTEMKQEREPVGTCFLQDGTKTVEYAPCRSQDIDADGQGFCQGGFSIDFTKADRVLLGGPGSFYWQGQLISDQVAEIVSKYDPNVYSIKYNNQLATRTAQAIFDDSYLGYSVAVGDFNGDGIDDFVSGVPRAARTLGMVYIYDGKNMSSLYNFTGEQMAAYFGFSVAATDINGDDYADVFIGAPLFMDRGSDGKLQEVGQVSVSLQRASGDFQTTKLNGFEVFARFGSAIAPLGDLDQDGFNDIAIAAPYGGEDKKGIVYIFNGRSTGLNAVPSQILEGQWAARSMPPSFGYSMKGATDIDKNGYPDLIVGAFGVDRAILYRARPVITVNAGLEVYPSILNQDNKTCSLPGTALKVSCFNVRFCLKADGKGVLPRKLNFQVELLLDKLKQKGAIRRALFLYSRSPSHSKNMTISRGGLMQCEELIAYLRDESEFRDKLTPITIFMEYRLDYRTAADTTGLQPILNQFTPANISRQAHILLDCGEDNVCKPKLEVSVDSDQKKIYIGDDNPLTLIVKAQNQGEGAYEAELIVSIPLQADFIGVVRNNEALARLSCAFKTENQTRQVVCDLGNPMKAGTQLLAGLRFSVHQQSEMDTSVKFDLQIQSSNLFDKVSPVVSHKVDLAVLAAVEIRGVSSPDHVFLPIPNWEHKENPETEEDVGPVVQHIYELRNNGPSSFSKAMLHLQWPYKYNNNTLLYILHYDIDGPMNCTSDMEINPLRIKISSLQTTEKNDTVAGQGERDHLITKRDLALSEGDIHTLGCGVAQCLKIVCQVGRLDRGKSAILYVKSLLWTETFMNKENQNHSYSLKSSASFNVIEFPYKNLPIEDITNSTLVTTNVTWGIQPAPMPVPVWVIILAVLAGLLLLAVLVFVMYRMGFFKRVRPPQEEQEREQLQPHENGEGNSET
Sequence of av-beta6 (P18564 22-788): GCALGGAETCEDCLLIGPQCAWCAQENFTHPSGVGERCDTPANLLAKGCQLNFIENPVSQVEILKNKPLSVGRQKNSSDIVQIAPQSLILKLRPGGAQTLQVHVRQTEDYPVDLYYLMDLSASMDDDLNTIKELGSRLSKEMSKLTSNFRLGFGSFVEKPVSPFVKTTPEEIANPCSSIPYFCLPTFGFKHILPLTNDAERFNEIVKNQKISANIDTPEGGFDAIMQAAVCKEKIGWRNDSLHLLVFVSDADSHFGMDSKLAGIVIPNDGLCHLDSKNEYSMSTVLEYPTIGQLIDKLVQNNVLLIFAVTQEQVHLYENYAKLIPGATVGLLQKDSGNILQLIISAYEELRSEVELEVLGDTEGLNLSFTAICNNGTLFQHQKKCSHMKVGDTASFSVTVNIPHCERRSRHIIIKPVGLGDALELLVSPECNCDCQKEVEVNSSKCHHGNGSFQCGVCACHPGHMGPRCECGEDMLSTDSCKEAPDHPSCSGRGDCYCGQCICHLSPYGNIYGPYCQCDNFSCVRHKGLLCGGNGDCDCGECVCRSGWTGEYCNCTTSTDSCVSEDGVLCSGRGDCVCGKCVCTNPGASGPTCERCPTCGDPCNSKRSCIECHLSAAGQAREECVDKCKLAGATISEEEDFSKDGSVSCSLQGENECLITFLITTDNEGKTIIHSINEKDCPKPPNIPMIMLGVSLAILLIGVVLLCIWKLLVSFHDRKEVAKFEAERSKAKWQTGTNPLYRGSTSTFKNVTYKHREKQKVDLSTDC

[4] = target: T1, vitronectin receptor aVβ3 (Homo sapiens, UniProt P05106+P06756); assay: Pentapeptides as inhibitors of αVβ3 (immobilized), solid-phase inhibition assay; conditions: αVβ3 from human placental extracts, binding of vitronectin, read-out: IC50 VN: αvβ3
T1 construct: Integrin αVβ3 is purified from human placental extracts; from tissue; host or cells: human placenta (extracts)
T1 sequence (P06756 31-889 limits assumed): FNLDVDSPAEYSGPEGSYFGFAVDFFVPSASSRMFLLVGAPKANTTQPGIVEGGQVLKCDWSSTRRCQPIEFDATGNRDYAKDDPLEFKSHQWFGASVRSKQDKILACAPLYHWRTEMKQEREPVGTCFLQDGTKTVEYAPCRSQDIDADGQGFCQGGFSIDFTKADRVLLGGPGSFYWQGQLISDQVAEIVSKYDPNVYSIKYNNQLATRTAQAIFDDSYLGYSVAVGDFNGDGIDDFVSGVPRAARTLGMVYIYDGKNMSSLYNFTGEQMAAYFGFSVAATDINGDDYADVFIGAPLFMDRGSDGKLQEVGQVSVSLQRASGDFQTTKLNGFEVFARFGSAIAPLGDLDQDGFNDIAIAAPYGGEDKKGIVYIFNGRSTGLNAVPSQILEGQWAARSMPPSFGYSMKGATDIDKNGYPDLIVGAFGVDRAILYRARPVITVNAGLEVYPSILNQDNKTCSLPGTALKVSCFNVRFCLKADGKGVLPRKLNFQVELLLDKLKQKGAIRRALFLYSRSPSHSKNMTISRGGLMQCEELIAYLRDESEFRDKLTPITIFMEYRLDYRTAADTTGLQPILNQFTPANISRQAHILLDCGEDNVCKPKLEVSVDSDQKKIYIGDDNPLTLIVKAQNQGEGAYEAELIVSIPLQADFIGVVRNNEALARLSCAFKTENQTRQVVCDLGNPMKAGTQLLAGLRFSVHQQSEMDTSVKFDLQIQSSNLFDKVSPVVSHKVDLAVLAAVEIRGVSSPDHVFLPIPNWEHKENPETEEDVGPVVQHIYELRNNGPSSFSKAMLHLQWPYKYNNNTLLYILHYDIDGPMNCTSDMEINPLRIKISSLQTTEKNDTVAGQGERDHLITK
T1 sequence (P06756 891-1048 partner limits assumed): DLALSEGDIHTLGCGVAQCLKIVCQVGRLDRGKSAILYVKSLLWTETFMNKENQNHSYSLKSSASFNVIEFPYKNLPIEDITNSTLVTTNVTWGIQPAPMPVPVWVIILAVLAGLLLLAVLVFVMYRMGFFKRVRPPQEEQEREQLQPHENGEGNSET
T1 sequence (P05106 27-788): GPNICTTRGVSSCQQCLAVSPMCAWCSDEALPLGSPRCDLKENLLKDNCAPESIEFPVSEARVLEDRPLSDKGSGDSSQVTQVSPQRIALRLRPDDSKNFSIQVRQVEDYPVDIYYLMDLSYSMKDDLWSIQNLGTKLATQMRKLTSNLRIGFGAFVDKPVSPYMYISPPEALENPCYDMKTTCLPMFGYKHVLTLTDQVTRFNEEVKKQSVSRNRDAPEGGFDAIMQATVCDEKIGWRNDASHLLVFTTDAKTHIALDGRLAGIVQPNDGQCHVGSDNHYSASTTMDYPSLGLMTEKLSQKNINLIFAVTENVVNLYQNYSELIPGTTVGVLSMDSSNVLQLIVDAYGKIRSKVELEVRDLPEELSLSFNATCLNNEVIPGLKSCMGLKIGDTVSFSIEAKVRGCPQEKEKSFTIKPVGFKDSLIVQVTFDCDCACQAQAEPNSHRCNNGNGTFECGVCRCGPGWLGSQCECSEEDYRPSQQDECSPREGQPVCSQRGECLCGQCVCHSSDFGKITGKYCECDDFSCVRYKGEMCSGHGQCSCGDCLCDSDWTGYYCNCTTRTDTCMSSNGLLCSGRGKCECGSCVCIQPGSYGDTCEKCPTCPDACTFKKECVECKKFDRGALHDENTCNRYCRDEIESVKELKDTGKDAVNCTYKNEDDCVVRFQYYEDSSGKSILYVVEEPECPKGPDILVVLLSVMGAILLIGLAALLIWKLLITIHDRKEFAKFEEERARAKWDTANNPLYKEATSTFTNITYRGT
Procedure: Preparation and Characterization of Integrin αVβ3: Integrin αVβ3 is purified from human placental extracts by affinity chromatography on GRGDSPK peptide. Extraction and chromatography follows previously published protocols except that Triton X-100 is replaced by 25 mM octyl-P-D-glucopyranoside. Bound integrin is eluted with 10 mM EDTA into 1.5-ml vials containing 25 pl of 1 M MgCl, and concentrated in Centricon 100 microconcentrators. They are stored at 4° C. in neutral buffer containing 25 mM octyl glucoside, and 0.05% sodium azide. Protein concentrations were determined by a micro BCA assay (Pierce).
Solid-phase inhibition assays are established for the inhibition of binding of the vitronectin receptor aVβ3 to their corresponding protein ligands by the cyclic peptides. Inhibitory activities (IC50) of cyclic RGD containing peptides for the binding of vitronectin (VN). Integrins are used as immobilized ligands.

[5] = target: T2, human placental αVβ3 (Homo sapiens, UniProt P05106+P06756); assay: Receptor inhibition assay, binding of biotinylated ligands to human placental αVβ3; conditions: purified human placental αVβ3, biotinylated vitronectin, 3 h at 30° C.; read-out: IC50 VN: αvβ3
T2 construct: Purified human integrin αVβ3 from term placenta; from tissue; host or cells: human term placenta
T2 sequence (P06756 31-889 limits assumed): as the sequence (P06756 31-889 limits assumed) above
T2 sequence (P06756 891-1048 partner limits assumed): as the sequence (P06756 891-1048 partner limits assumed) above
T2 sequence (P05106 27-788): as the sequence (P05106 27-788) above
Procedure: After 3 h at 30° C. bound ligand was measures by anti-biotin—alkaline phosphatase detection.

[6] = target: integrin αVβ3 (Homo sapiens, UniProt P05106+P06756); assay: Isolated integrin-ligand binding assay (ligand inhibition, immobilized integrin, biotinylated vitronectin); conditions: immobilized recombinant human integrin, biotinylated human serum vitronectin as ligand
Sequence of integrin αVβ3 (P06756 31-1048): as the sequence (P06756 31-1048) above
Sequence of integrin αVβ3 (P05106 27-788): as the sequence (P05106 27-788) above
Procedure: i) Isolated Integrin-Ligand Binding Assay The production of recombinant human integrin is known in the literature. […] In brief, 96-well ELISA plates are coated by adsorption from neutral aqueous buffers of 1 microg/ml integrin. After blocking residual sites on the plate with BSA, biotinylated ligands (1 microg/ml) are added in the presence or absence of serial dilutions of inhibitor, and after incubation and washing, bound biotin is detected with peroxidase-coupled anti-biotin antibody and TMB substrate.

N=C(N)NCCC[C@@H]1NC(=O)C2(CCCCC2)NC(=O)[C@@H](Cc2ccccc2)NC(=O)[C@H](CC(=O)O)NC(=O)CNC1=O [CPPC 1, Cyclo-(Arg-Gly-Asp-DPhe-Acha)]
activity as av-beta3/5 ligand [1]: highly active
ADAM9 gene expression, Compound vs. Control, ratio Log(2) value [2]: 0.4854
ASC gene expression, Compound vs. Control, ratio Log(2) value [2]: −0.304
BCL2L1 gene expression, Compound vs. Control, ratio Log(2) value [2]: 0.263
BMP-3 gene expression in treated skin [2]: downregulated
C19orf10 gene expression, Compound vs. Control, ratio Log(2) value [2]: 0.263
CASP8 gene expression, Compound vs. Control, ratio Log(2) value [2]: −0.304
CCNB2 gene expression, Compound vs. Control, ratio Log(2) value [2]: 0.4647
CD81 gene expression, Compound vs. Control, ratio Log(2) value [2]: 0.251
CDK2 gene expression, Compound vs. Control, ratio Log(2) value [2]: 0.2265
CDK4 gene expression, Compound vs. Control, ratio Log(2) value [2]: 0.1375
CLU gene expression, Compound vs. Control, ratio Log(2) value [2]: 0.4436
DDR2 gene expression, Compound vs. Control, ratio Log(2) value [2]: 0.2869
E2F3 gene expression, Compound vs. Control, ratio Log(2) value [2]: −0.3959
EGF gene expression, Compound vs. Control, ratio Log(2) value [2]: −0.2345
ELA2 gene expression, Compound vs. Control, ratio Log(2) value [2]: −0.2345
FBLN1_4 gene expression, Compound vs. Control, ratio Log(2) value [2]: 0.516
FBLN2 gene expression, Compound vs. Control, ratio Log(2) value [2]: 0.3785
FGF1 gene expression, Compound vs. Control, ratio Log(2) value [2]: 0.5059
FLOT2 gene expression, Compound vs. Control, ratio Log(2) value [2]: 0.4542
GDF10 gene expression, Compound vs. Control, ratio Log(2) value [2]: −0.2863
IGFBP4 gene expression, Compound vs. Control, ratio Log(2) value [2]: 0.4854
IL2 gene expression, Compound vs. Control, ratio Log(2) value [2]: −0.5778
IL6 gene expression, Compound vs. Control, ratio Log(2) value [2]: 0.4854
IL7 gene expression, Compound vs. Control, ratio Log(2) value [2]: −0.3585
IL8 gene expression, Compound vs. Control, ratio Log(2) value [2]: 0.3219
IL17A gene expression, Compound vs. Control, ratio Log(2) value [2]: −0.6666
JUN gene expression, Compound vs. Control, ratio Log(2) value [2]: −0.5778
KRT2A gene expression, Compound vs. Control, ratio Log(2) value [2]: 0.4005
KRT9 gene expression, Compound vs. Control, ratio Log(2) value [2]: −0.2688
KRT19 gene expression, Compound vs. Control, ratio Log(2) value [2]: 0.3334
LCN2 gene expression, Compound vs. Control, ratio Log(2) value [2]: −0.5564
MCL1 gene expression, Compound vs. Control, ratio Log(2) value [2]: 0.3674
PGF gene expression, Compound vs. Control, ratio Log(2) value [2]: 0.2141
PTGS2 gene expression, Compound vs. Control, ratio Log(2) value [2]: 0.4222
QSOX1 gene expression, Compound vs. Control, ratio Log(2) value [2]: 0.433
S100A12 gene expression, Compound vs. Control, ratio Log(2) value [2]: −0.2515
SDCBP gene expression, Compound vs. Control, ratio Log(2) value [2]: 0.3896
SEPRASE gene expression, Compound vs. Control, ratio Log(2) value [2]: 0.546
SOCS1 gene expression, Compound vs. Control, ratio Log(2) value [2]: 0.3334
SPARC gene expression, Compound vs. Control, ratio Log(2) value [2]: 0.3674
SPRR1A gene expression, Compound vs. Control, ratio Log(2) value [2]: −0.304
STAT1 gene expression, Compound vs. Control, ratio Log(2) value [2]: 0.3103
STAT5B gene expression, Compound vs. Control, ratio Log(2) value [2]: −0.1844
TNF gene expression, Compound vs. Control, ratio Log(2) value [2]: −0.304
TNFC gene expression, Compound vs. Control, ratio Log(2) value [2]: −0.3401
TNFRSF1B gene expression, Compound vs. Control, ratio Log(2) value [2]: −0.3585
TNFRSF25 gene expression, Compound vs. Control, ratio Log(2) value [2]: −0.2688
TNFSF10 gene expression, Compound vs. Control, ratio Log(2) value [2]: −0.2688
TNFSF13B gene expression, Compound vs. Control, ratio Log(2) value [2]: −0.2688
TUBB gene expression, Compound vs. Control, ratio Log(2) value [2]: 0.6599
TXLN gene expression, Compound vs. Control, ratio Log(2) value [2]: −0.8365
bone morphogenic proteins (BMPs) gene expression in treated skin [2]: downregulated
fibulins gene expression in treated skin [2]: upregulated
number of deregulated genes selected (of 1312 genes on the microarray) ([2]; p<0.05, at least […] deregulation): 345
activity as av-beta6 ligand [3]: low active

CC(C)[C@@H]1NC(=O)[C@H](Cc2ccccc2)NC(=O)[C@H](CC(=O)O)NC(=O)[C@@H](C)NC(=O)[C@H](CCCNC(=N)N)NC1=O [Cyclo-(Arg-DAla-Asp-Phe-Val)] (cyclo(R[dA]DFV))
IC50 [4]: > 240000 nM

CC(C)(C)[C@@H]1NC(=O)[C@@H](Cc2ccc(F)cc2)NC(=O)[C@H](CC(=O)O)NC(=O)CNC(=O)[C@H](CCCNC(=N)N)NC1=O [Cyclo-(Arg-Gly-Asp-DPhe(4-F)-Tle)]
IC50 [5]: 3 nM

C[C@H]1C(=O)N[C@@H](CCCNC(=N)N)C(=O)NCC(=O)N[C@@H](CC(=O)O)C(=O)N[C@H](Cc2ccccc2)C(=O)N1C [Cyclo-(Arg-Gly-Asp-DPhe-(NMe)Ala)]
IC50 [6]: 24 nM
